The structures appear in SMILES notation.

Type in all cases: in vivo
Assay [1] relates to Wheat plants of the "Cubus" cultivar. Put plainly: Reduction of shoot growth in winter wheat, greenhouse test. Here is the method: Wheat plants of the “Cubus” cultivar were cultivated in pots of diameter 12 cm on a customary growing substrate. The plants were treated at BBCH development stage 11/12 (1-2 leaves unfolded) at a shoot length of 16 cm as a foliar application with a liquid volume of 750 I/ha. Both prohexadione-Ca (“ProCa”) and trinexapac-ethyl (“TriEt”) were used as technical grade active ingredients. To prepare an applicable spray liquor, the adjuvant LI-700 (Loveland Products, Inc., Greeley, Colo., USA) was added in a concentration of 0.1%. The shoot length of the plants was measured at different times after the treatment. The following results were obtained (data in centimeters): […]

Assay [2] has as its system Winter wheat of the "Bussard" cultivar. Put plainly: Reduction of shoot growth in winter wheat, field test. How it is done: Winter wheat of the “Bussard” cultivar was cultivated under field conditions. To “provoke” significant lodging, the supply of the nutrient element nitrogen was deliberately selected too high. The remaining growing conditions corresponded to customary practice. The plants were treated with the inventive active ingredient combination at the BBCH 31/32 development stage (1- to 2-node stage) as a foliar application with a liquid volume of 200 I/ha. Prohexadione-Ca (“ProCa”) (50 g/ha) was used as Regalis (BASF) and trinexapac-ethyl (“TriEt”) (75 g/ha) as Moddus (Syngenta). The shoot length of the plants was measured at various times from the treatment until they were ready for harvest. The following results were obtained (data in centimeters): […]

Assay [3] has the same test system. Put plainly: Degree of stem lodging in winter wheat ready for harvest, field test. Conditions: crops ready for harvest; for Degree of lodging: % lodged area x intensity (0-100) / 100. How it is done:
Winter wheat of the “Bussard” cultivar was cultivated under field conditions. To “provoke” significant lodging, the supply of the nutrient element nitrogen was deliberately selected too high. The remaining growing conditions corresponded to customary practice. The plants were treated with the inventive active ingredient combination at the BBCH 31/32 development stage (1- to 2-node stage) as a foliar application with a liquid volume of 200 I/ha. Prohexadione-Ca (“ProCa”) (50 g/ha) was used as Regalis (BASF) and trinexapac-ethyl (“TriEt”) (75 g/ha) as Moddus (Syngenta). The shoot length of the plants was measured at various times from the treatment until they were ready for harvest. The following results were obtained (data in centimeters):
For crops ready for harvest from the test, the degree of stem lodging was determined. This value is the product of the percentage area in which the wheat plants are no longer upright with the intensity of lodging (0=plants are upright/100=plants lie flat on the ground) divided by 100. The values obtained here likewise lead to the conclusion of a synergistic interaction of the active ingredients involved: […]

[4] abbreviates: 25 g/ha foliar, 0 days after treatment.
[5] abbreviates: 25 g/ha foliar, 5 days after treatment.
The mark [6] stands for this setting: 25 g/ha foliar, 8 days after treatment.
Where [7] appears, read: 25 g/ha foliar, 11 days after treatment.
The mark [8] stands for this setting: 50 g/ha foliar, 0 days after treatment.
The mark [9] stands for this setting: 50 g/ha foliar, 5 days after treatment.
Setting [10] is: 50 g/ha foliar, 8 days after treatment.
Where [11] appears, read: 50 g/ha foliar, 11 days after treatment.
[12] abbreviates: 100 g/ha foliar, 0 days after treatment.
[13] abbreviates: 100 g/ha foliar, 5 days after treatment.
Where [14] appears, read: 100 g/ha foliar, 8 days after treatment.
Setting [15] is: 100 g/ha foliar, 11 days after treatment.

As for `CCC(=O)C1=C([O-])CC(C(=O)[O-])CC1=O.[Ca+2]` (stereo not drawn) [ProCa, prohexadione-Ca], the shoot length in assay [1] (setting [4]) was 16 cm; in assay [1] (setting [5]) it was 23.0 cm; in assay [1] (setting [6]), 26.6 cm; in assay [1] (setting [7]), 31.1 cm; in assay [1] (setting [8]) it was 16 cm; in assay [1] (setting [9]) it was 23.0 cm. The shoot length amounted to 26.3 cm in assay [1] (setting [10]); 29.5 cm in assay [1] (setting [11]); 16 cm in assay [1] (setting [12]); 22.5 cm in assay [1] (setting [13]); 24.0 cm in assay [1] (setting [14]); 25.8 cm in assay [1] (setting [15]). Moreover, the shoot length in assay [2] (50 g/ha (as Regalis) foliar, 0 days after treatment) came out at 43.0 cm; in assay [2] (50 g/ha (as Regalis) foliar, 7 days after treatment), 50.0 cm; in assay [2] (50 g/ha (as Regalis) foliar, 21 days after treatment), 69.3 cm; in assay [2] (50 g/ha (as Regalis) foliar, 30 days after treatment), 89.0 cm; in assay [2] (50 g/ha (as Regalis) foliar, 37 days after treatment), 99.5 cm; in assay [2] (50 g/ha (as Regalis) foliar, 49 days after treatment), 119.8 cm. Also, the shoot length in assay [2] (50 g/ha (as Regalis) foliar, 63 days after treatment) was determined as 120.0 cm. For the same compound, in assay [3] (50 g/ha), the “Improvement over control [%] (degree of lodging)” value is 11%. Further, in assay [3] (50 g/ha), the “Improvement over control absolute (degree of lodging)” value is recorded as 10. Besides, the Degree of lodging in assay [3] (50 g/ha) came to 81.
As to `CCOC(=O)C1CC(=O)C(=C(O)C2CC2)C(=O)C1` (stereo not drawn) [TriEt, trinexapac-ethyl], the shoot length was determined as 16 cm in assay [1] (setting [4]); 24.6 cm in assay [1] (setting [5]); 27.9 cm in assay [1] (setting [6]); 32.9 cm in assay [1] (setting [7]); 16 cm in assay [1] (setting [8]); 24.4 cm in assay [1] (setting [9]). In addition, the shoot length worked out at 26.5 cm in assay [1] (setting [10]); 31.8 cm in assay [1] (setting [11]); 16 cm in assay [1] (setting [12]); 22.3 cm in assay [1] (setting [13]); 23.6 cm in assay [1] (setting [14]); 28.5 cm in assay [1] (setting [15]). Moreover, the shoot length in assay [2] (75 g/ha (as Moddus) foliar, 0 days after treatment) came to 43.0 cm; in assay [2] (75 g/ha (as Moddus) foliar, 7 days after treatment), 54.5 cm; in assay [2] (75 g/ha (as Moddus) foliar, 21 days after treatment), 76.3 cm; in assay [2] (75 g/ha (as Moddus) foliar, 30 days after treatment) it was 97.8 cm; in assay [2] (75 g/ha (as Moddus) foliar, 37 days after treatment), 102.8 cm; in assay [2] (75 g/ha (as Moddus) foliar, 49 days after treatment), 119.8 cm. Also, the shoot length in assay [2] (75 g/ha (as Moddus) foliar, 63 days after treatment) turned out to be 121.0 cm. The Degree of lodging in assay [3] (75 g/ha) was 93.

The record behind these values is patent US9220262B2, “Use of acylcyclohexanedione carboxylic acid or salts thereof in combination with acylcyclohexanedione carboxylic acid esters for improving the development of gramineous plants” (BASF SE, priority 2008, dated 2015).
